Laboratory results reported in US4775695A, “Substituted amidinoalkoxy and amidinoalkylamino indanones and salts thereof” (Merck & Co., Inc., priority 1987, dated 1988).
Structures can show the parent of a compound that is named as a salt.

Test system: cerebrocortical cat brain tissue slices
Assay: In vitro Cerebrocortical Cat Brain Tissue Slice Assay (inhibition of HCO3^- -stimulated swelling)
Settings: 60 minutes, 37° C., 10 mM HCO3^-, 27 mM K^+
Protocol: See, e.g., Bourke et al., Neurochem. Res., 8, 5 (1983), and Cragoe et al., J. Med. Chem., 25, 567 (1982).
Adult cats of 2-3 kg body weight were employed in tissue slice studies. Prior to sacrifice, the animals were anesthetized with ketamine hydrochloride, 10 mg/kg intramuscularly. Eight (three control, five experimental) pial surface cerebrocortical tissue slices (0.5 mm thick; approximately 150 mg initial fresh weight) were cut successively with a calibrated Stadie-Riggs fresh tissue microtome without moistening and weighed successively on a torsion balance. During the slice preparation all operations except weighing were confined to a humid chamber. Each slice was rapidly placed in an individual Warburg flask containing 2 ml of incubation medium at room temperature. The basic composition of the incubation media was as follows: glucose, 10 mM; CaCl2, 1.3 mM; MgSO4, 1.2 mM; KHSO4, 1.2 mM; HEPES (N-2-hydroxyethylpiperazine-N'-2-ethanesulfonic acid, titrated with NaOH to pH 7.4), 20 mM. Except when adding HCO3^-, the osmolarity of the media was maintained isosmotic (approximately 285 mOsm/L) by reciprocal changes of Na^+ or K^+ to achieve a concentration of K^+ of 27 mM. The basic medium was saturated with oxygen by bubbling pure oxygen through the solution for 30 minutes before use. […]
Following the 60-minute incubation period, tissue slices were separated from incubation medium by filtration, reweighed, and homogenized in 1N HClO4 (10% w/v) for electrolyte analysis. […] Control slice swelling is expressed as microliters per gram initial preswelling fresh weight. The effectiveness of an inhibitor at a given concentration was measured by the amount of HCO3^- -stimulated swelling that occurred in its presence, computed as a percent of the maximum possible and is reported as an IC50. […] Tissue and media Na^+ and K^+ levels were determined by emission flame photometry with Li^+ internal standard; Cl^- levels were determined by amperometric titration. Tissue viability during incubation is monitored by manometry.

Row | Structure (SMILES) | IC50 (hydrate) | IC50 (Felis catus, 1 h)
1 | CC1(C2CCCC2)Cc2cc(OCC(=N)N)c(Cl)c(Cl)c2C1=O (single isomer, unassigned; (+)) [Example 6, (+)[(2-Cyclopentyl-6,7-dichloro-2,3-dihydro-2-methyl-1-oxo-1H-inden-5-yl)oxy]ethanimidamide hydrochloride 1/4 hydrate] | 100 nM | –
2 | CC1(C2CCCC2)Cc2cc(OCC(=N)N)c(Cl)c(Cl)c2C1=O (single isomer, unassigned; (-)) [Example 7, (-)[(2-Cyclopentyl-6,7-dichloro-2,3-dihydro-2-methyl-1-oxo-1H-inden-5-yl)oxy]ethanimidamide hydrochloride 1/4 hydrate] | 5 nM | –
3 | CC1(C2CCCC2)Cc2cc(OCC(=N)N)c(Cl)c(Cl)c2C1=O (stereo not drawn) [Example 2, [(2-Cyclopentyl-6,7-dichloro-2,3-dihydro-2-methyl-1-oxo-1H-inden-5-yl)oxy]ethanimidamide hydrochloride hemihydrate] | – | 10 nM
